According to patent US20260217706A1, “HETEROCYCLIC COMPOUNDS, PREPARATION METHOD THEREFOR AND USE THEREOF” (GUANGZHOU YUFAN NANTU BIOTECHNOLOGIES CO., LTD, priority 2023, published 2026):

Columns and labels:
[1] = system: anti-CD3 activated human PBMCs; assay: Effect of compounds on the level of IL-2 secretion by anti-CD3 activated human PBMCs (IL-2 ELISA); type: cell-based; conditions: compound concentration at which fold change in IL-2 = 5; hPBMCs, CD3 antibody 2 μg/mL, 48 h, compound from 3 μM
Procedure: 2. Inoculate the resuspended cells into a 96-well cell culture plate at 200 ul/well of cell suspension, and incubate in a 37° C. cell incubator for 1 h;
3. Adjust the compound concentration with DMSO, starting at a final concentration of 3 μM, and perform a 3-fold dilution sequentially for 10 concentration gradients, with an additional DMSO control well set up; and
4. Adjust the CD3 antibody to an appropriate concentration to achieve a final concentration of 2 μg/mL, mix thoroughly, and incubate in a 37° C. cell incubator for 48h.
5. After 48 h, centrifuge at 1500 rpm for 5 min to collect the supernatant of the culture medium for the human IL-2 ELISA test.
The OD values obtained from the ELISA test are converted into the fold change (FC) in IL-2 concentration. […] The EC50 is calculated using GraphPad Prism. When the fold change=5, the corresponding compound concentration is CFC=5 (in nM).

CBL-B protein = CBL-B protein (Homo sapiens, UniProt Q13191); assay: CBL-B binding experiment (Streptavidin-Tb cryptate / Ligand L1 displacement); conditions: 8 nM CBL-B protein, 25° C., 60 minutes; Ki=Relative IC50/2
Sequence of CBL-B protein (Q13191 whole entry): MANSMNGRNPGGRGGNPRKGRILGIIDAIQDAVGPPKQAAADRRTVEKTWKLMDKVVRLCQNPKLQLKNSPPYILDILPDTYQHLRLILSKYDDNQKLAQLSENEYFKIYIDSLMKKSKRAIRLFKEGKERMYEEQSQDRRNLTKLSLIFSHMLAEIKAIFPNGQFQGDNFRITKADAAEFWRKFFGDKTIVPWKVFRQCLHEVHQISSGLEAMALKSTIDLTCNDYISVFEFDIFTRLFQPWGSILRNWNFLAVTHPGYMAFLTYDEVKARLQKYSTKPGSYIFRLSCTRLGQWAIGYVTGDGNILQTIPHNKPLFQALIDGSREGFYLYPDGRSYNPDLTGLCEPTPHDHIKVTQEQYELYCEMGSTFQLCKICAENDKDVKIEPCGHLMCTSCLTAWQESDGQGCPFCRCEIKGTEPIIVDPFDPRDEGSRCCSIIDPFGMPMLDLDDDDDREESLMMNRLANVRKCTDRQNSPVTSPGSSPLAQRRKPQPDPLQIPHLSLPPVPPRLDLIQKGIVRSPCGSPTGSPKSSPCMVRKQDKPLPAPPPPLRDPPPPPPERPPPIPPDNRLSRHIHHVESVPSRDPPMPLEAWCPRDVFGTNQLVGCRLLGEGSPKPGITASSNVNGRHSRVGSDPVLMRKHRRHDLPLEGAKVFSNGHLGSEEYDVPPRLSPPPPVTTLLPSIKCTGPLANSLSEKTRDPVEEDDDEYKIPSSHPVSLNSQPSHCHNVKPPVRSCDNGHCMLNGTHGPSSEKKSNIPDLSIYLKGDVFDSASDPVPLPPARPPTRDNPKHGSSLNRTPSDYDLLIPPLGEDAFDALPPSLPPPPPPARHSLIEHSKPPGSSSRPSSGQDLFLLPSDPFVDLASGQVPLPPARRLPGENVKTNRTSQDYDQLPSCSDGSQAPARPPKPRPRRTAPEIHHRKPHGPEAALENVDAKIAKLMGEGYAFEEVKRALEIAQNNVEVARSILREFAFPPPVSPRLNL
Summary of the method: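 Compounds in a 10-point DMSO series met 8 nM CBL-B protein in HEPES pH 7.5/NaCl/Triton/TCEP/BSA buffer at 25° C. for 60 min. A further 60 min at room temperature preceded the luminescence read, normalised to no-protein and DMSO wells. Ki was taken as relative IC50 divided by 2.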

Row | SMILES | Ki (CBL-B protein) [nM] | IL-2 CFC=5/nM [1] [nM]
1 | Cn1cnnc1C1(c2cccc(-n3cc(C(F)(F)F)c4cc(CN5CC6CCC(C6)C5)[nH]c4c3=O)c2)CCC1 [Compound T053, 2-(3-azabicyclo[3.2.1]octan-3-ylmethyl)-6-[3-[1-(4-methyl-1,2,4-triazol-3-yl)cyclobutyl]phenyl]-4-(trifluoromethyl)-1H-pyrrolo[2,3-c]pyridin-7-one] | < 50 | <500
2 | Cn1cnnc1C1(c2cccc(-n3cc(C(F)(F)F)c4cc(CN5CCCC6(CC6)C5)[nH]c4c3=O)c2)CCC1 [Compound T054, 2-(5-azaspiro[2.5]octan-5-ylmethyl)-6-[3-[1-(4-methyl-1,2,4-triazol-3-yl)cyclobutyl]phenyl]-4-(trifluoromethyl)-1H-pyrrolo[2,3-c]pyridin-7-one] | < 50 | <500
3 | C[C@H]1CCCN(Cc2cc3c(C(F)(F)F)cn(-c4cccc([C@H](c5nncn5C)C5CCC5)c4)c(=O)c3[nH]2)C1 [Compound T060, 6-(3-((R)-cyclobutyl (4-methyl-4H-1,2,4-triazol-3-yl)methyl)phenyl)-2-(((S)-3-methylpiperidin-1-yl)methyl)-4-(trifluoromethyl)-1,6-dihydro-7H-pyrrolo[2,3-c]pyridin-7-one] | < 50 | <500
4 | CO[C@H]1C[C@](c2cccc(-n3cc(C(F)(F)F)c4cc(CNC5(C)CCC5)[nH]c4c3=O)c2)(c2nncn2C)C1 [Compound T066, 6-(3-((1r,3r)-3-methoxy-1-(4-methyl-4H-1,2,4-triazol-3-yl)cyclobutyl)phenyl)-2-(((1-methylcyclobutyl)amino)methyl)-4-(trifluoromethyl)-1,6-dihydro-7H-pyrrolo[2,3-c]pyridin-7-one] | < 50 | <500
5 | CO[C@H]1C[C@@](c2cccc(-n3cc(C(F)(F)F)c4cc(CNC5(C)CCC5)[nH]c4c3=O)c2)(c2nncn2C)C1 [Compound T067, 6-(3-((1s,3s)-3-methoxy-1-(4-methyl-4H-1,2,4-triazol-3-yl)cyclobutyl)phenyl)-2-(((1-methylcyclobutyl)amino)methyl)-4-(trifluoromethyl)-1,6-dihydro-7H-pyrrolo[2,3-c]pyridin-7-one] | < 50 | <500
6 | CCN(Cc1cc2c(C(F)(F)F)cn(-c3cccc([C@]4(c5nncn5C)C[C@@H](C)C4)c3)c(=O)c2[nH]1)CC(C)C [Compound T069, 2-((ethyl(isobutyl)amino)methyl)-6-(3-((1s,3s)-3-methyl-1-(4-methyl-4H-1,2,4-triazol-3-yl)cyclobutyl)phenyl)-4-(trifluoromethyl)-1,6-dihydro-7H-pyrrolo[2,3-c]pyridin-7-one] | < 50 | <500
7 | C[C@H]1CCCN(Cc2cc3c(C4CC4)cn(-c4cccc(C5(Cc6nncn6C)CC(F)(F)C5)c4)c(=O)c3[nH]2)C1 [Compound T077, 4-cyclopropyl-6-[3-[3,3-difluoro-1-[(4-methyl-1,2,4-triazol-3-yl)methyl]cyclobutyl]phenyl]-2-[[(3S)-3-methyl-1-piperidyl]methyl]-1H-pyrrolo[2,3-c]pyridin-7-one] | < 50 | <500
8 | Cn1cnnc1C1(c2cccc(-n3cc(C(F)(F)F)c4cc(CN5CCC[C@@H](CC#N)C5)[nH]c4c3=O)c2)CCC1 [Compound T080, (S)-2-(1-((6-(3-(1-(4-methyl-4H-1,2,4-triazol-3-yl)cyclobutyl)phenyl)-7-oxo-4-(trifluoromethyl)-6,7-dihydro-1H-pyrrolo[2,3-c]pyridin-2-yl)methyl)piperidin-3-yl)acetonitrile] | < 50 | <500
9 | C[C@H]1CCCN(Cc2cc3c(C(F)(F)F)cn(-c4cccc(C5(c6nncn6C)CC6(CC6)C5)c4)c(=O)c3[nH]2)C1 [Compound T084, 2-[[(3S)-3-methyl-1-piperidyl]methyl]-6-[3-[5-(4-methyl-1,2,4-triazol-3-yl)spiro[2.3]hexan-5-yl]phenyl]-4-(trifluoromethyl)-1H-pyrrolo[2,3-c]pyridin-7-one] | < 50 | <500
10 | CC=C1CC(c2cccc(-n3cc(C(F)(F)F)c4cc(CN5CCC[C@H](C)C5)[nH]c4c3=O)c2)(c2nncn2C)C1 (stereo partly drawn) [Compound T085, 6-[3-[3-ethylidene-1-(4-methyl-1,2,4-triazol-3-yl)cyclobutyl]phenyl]-2-[[(3S)-3-methyl-1-piperidyl]methyl]-4-(trifluoromethyl)-1H-pyrrolo[2,3-c]pyridin-7-one] | < 50 | <500
11 | Cn1cnnc1C1(c2cccc(-n3cc(C(F)(F)F)c4cc(CN5C[C@H]6CCCC[C@H]6C5)[nH]c4c3=O)c2)CCC1 [Compound T086, 2-[[(3aS,7aR)-1,3,3a,4,5,6,7,7a-octahydroisoindol-2-yl]methyl]-6-[3-[1-(4-methyl-1,2,4-triazol-3-yl)cyclobutyl]phenyl]-4-(trifluoromethyl)-1H-pyrrolo[2,3-c]pyridin-7-one] | < 50 | <500
12 | Cn1cnnc1C1(c2cccc(-n3cc(C(F)(F)F)c4cc(CNCCCC(F)(F)F)[nH]c4c3=O)c2)CCC1 [Compound T091, 6-[3-[1-(4-methyl-1,2,4-triazol-3-yl)cyclobutyl]phenyl]-2-[(4,4,4-trifluorobutylamino)methyl]-4-(trifluoromethyl)-1H-pyrrolo[2,3-c]pyridin-7-one] | < 50 | <500

More lines, main results first:

Row | Ki (CBL-B protein) [nM] | SMILES | IL-2 CFC=5/nM [1] [nM]
13 | < 50 | Cn1cnnc1[C@]1(c2cccc(-n3cc(C(F)(F)F)c4cc(CN5CC[C@H](F)C5)[nH]c4c3=O)c2)C[C@H](C)C1 [Compound T047, 2-(((S)-3-fluoropyrrolidin-1-yl)methyl)-6-(3-((1s,3R)-3-methyl-1-(4-methyl-4H-1,2,4-triazol-3-yl)cyclobutyl)phenyl)-4-(trifluoromethyl)-1,6-dihydro-7H-pyrrolo[2,3-c]pyridin-7-one] | <500
14 | < 50 | Cn1cnnc1[C@]1(c2cccc(-n3cc(C(F)(F)F)c4cc(CN5CCC[C@H]6C[C@H]65)[nH]c4c3=O)c2)C[C@H](C)C1 [Compound T055, 2-(((1R,6S)-2-azabicyclo [4.1.0]heptan-2-yl)methyl)-6-(3-((1s,3S)-3-methyl-1-(4-methyl-4H-1,2,4-triazol-3-yl)cyclobutyl)phenyl)-4-(trifluoromethyl)-1,6-dihydro-7H-pyrrolo[2,3-c]pyridin-7-one] | <500
15 | < 50 | Cn1cnnc1[C@]1(c2cccc(-n3cc(C(F)(F)F)c4cc(CN5CCC[C@@H]6C[C@@H]65)[nH]c4c3=O)c2)C[C@H](C)C1 [Compound T056, 2-(((1 S,6R)-2-azabicyclo [4.1.0]heptan-2-yl)methyl)-6-(3-((1s,3R)-3-methyl-1-(4-methyl-4H-1,2,4-triazol-3-yl)cyclobutyl)phenyl)-4-(trifluoromethyl)-1,6-dihydro-7H-pyrrolo[2,3-c]pyridin-7-one] | <500
16 | < 50 | C[C@H]1CCCN(Cc2cc3c(C(F)(F)F)cn(-c4cccc(C5(c6nncn6C)CC(F)C5)c4)c(=O)c3[nH]2)C1 (stereo partly drawn) [Compound T070, 6-[3-[3-fluoro-1-(4-methyl-1,2,4-triazol-3-yl)cyclobutyl]phenyl]-2-[[(3S)-3-methyl-1-piperidyl]methyl]-4-(trifluoromethyl)-1H-pyrrolo[2,3-c]pyridin-7-one] | <500
17 | < 50 | C[C@H]1CCCN(Cc2cc3c(C(F)(F)F)cn(-c4cccc([C@]5(c6nncn6C)C[C@@H](F)C5)c4)c(=O)c3[nH]2)C1 [Compound T071, 6-[3-[3-fluoro-1-(4-methyl-1,2,4-triazol-3-yl)cyclobutyl]phenyl]-2-[[(3S)-3-methyl-1-piperidyl]methyl]-4-(trifluoromethyl)-1-H-pyrrolo[2,3-c]pyridin-7-one] | <500
18 | < 50 | Cn1cnnc1[C@]1(c2cccc(-n3cc(C(F)(F)F)c4cc(CN5C[C@@H]6CC[C@@H](C6)C5)[nH]c4c3=O)c2)C[C@H](C)C1 [Compound T087, 2-((3-azabicyclo[3.2.1]octan-3-yl)methyl)-6-(3-((1s,3s)-3-methyl-1-(4-methyl-4H-1,2,4-triazol-3-yl)cyclobutyl)phenyl)-4-(trifluoromethyl)-1,6-dihydro-7H-pyrrolo[2,3-c]pyridin-7-one] | <500
19 | < 50 | Cn1cnnc1[C@]1(c2cccc(-n3cc(C(F)(F)F)c4cc(CN5CCCC6(CC6)C5)[nH]c4c3=O)c2)C[C@H](C)C1 [Compound T088, 2-((5-azaspiro[2.5]octan-5-yl)methyl)-6-(3-((1s,3s)-3-methyl-1-(4-methyl-4H-1,2,4-triazol-3-yl)cyclobutyl)phenyl)-4-(trifluoromethyl)-1,6-dihydro-7H-pyrrolo[2,3-c]pyridin-7-one] | <500
20 | < 50 | CC[C@H]1C[C@@](c2cccc(-n3cc(C(F)(F)F)c4cc(CN5CCC[C@H](C)C5)[nH]c4c3=O)c2)(c2nncn2C)C1 [Compound T092, 6-(3-((1r,3R)-3-ethyl-1-(4-methyl-4H-1,2,4-triazol-3-yl)cyclobutyl)phenyl)-2-(((S)-3-methylpiperidin-1-yl)methyl)-4-(trifluoromethyl)-1,6-dihydro-7H-pyrrolo[2,3-c]pyridin-7-one] | <500
